In brackets after ≈: the same amount, converted by molar mass. Activity calls are given as the source filed them. No cut-off for these calls is given here.
System: Staphylococcus aureus
Assay: Inhibition of multidrug resistance efflux pump in Staphylococcus aureus ATCC 29213 assessed as potentiation factor measured by reduction in weighted average of ciprofloxacin MIC by serial dilution method
Settings: not given

Row | SMILES | PF | logPF
1 | CCCCCCC(/C=C/C(=O)N1CCCCC1)=C\c1ccc(OC)cc1 | 130 | 2.11
2 | CCCCC(/C=N/O)=C\c1ccc(OC)cc1 | 100 | 2
3 | COc1cc(/C=C(C)/C=C/C(=O)N2CCCCC2)ccc1O | 10 | 1
4 | CCC(CCCC(=O)NCC(=O)NCC(=O)OC)Cc1ccc2c(c1)OCO2 (stereo not drawn) | 70 | 1.85
5 | CC(/C=C/C(=O)NC(C)c1ccc(Br)cc1)=C\c1ccc2c(c1)OCO2 (stereo not drawn) | 380 | 2.58
6 | CC(/C=C/C(=O)N1CCCC1)=C\c1ccc2c(c1)OCO2 (stereo in doubt; 12) | 130 | 2.11
7 | CCCC(/C=C/C(=O)N1CCCCC1)=C\c1ccc2c(c1)OCO2 | 210 | 2.32
8 | CCC(/C=C/C(=O)Nc1ccccc1)=C\c1ccccc1 | 210 | 2.32
9 | CC(/C=C/C(=O)N1CCC(O)CC1)=C\c1ccc2c(c1)OCO2 | 210 | 2.32
10 | CC(/C=C/C(=O)O)=C\c1ccc2c(c1)OCO2 | 10 | 1
11 | CCC(/C=C/CN1CCCCC1)=C\c1ccc2c(c1)OCO2 | 70 | 1.85
12 | CCCCC(/C=N/c1ccccc1C(=O)O)=C\c1ccc(OC)cc1 | 100 | 2
13 | CCC(/C=C/C(=O)N1CCN(C)CC1)=C\c1ccc2c(c1)OCO2 | 130 | 2.11
14 | CCCC(/C=C/C(=O)N1CCN(C)CC1)=C\c1ccc2c(c1)OCO2 | 60 | 1.78
15 | CCC(CCC(=O)NCC(C)C)Cc1ccc2c(c1)OCO2 (stereo not drawn) | 70 | 1.85
16 | CCC(/C=C/C(=O)NCC(C)C)=C\c1ccc2c(c1)OCO2 | 270 | 2.43
17 | CC(/C=C/C(=O)N1CCCCC1)=C\c1ccc2c(c1)OCO2 | 180 | 2.25
18 | CCC(CO)NC(=O)/C=C/C(C)=C/c1ccc2c(c1)OCO2 (stereo not drawn) | 30 | 1.48
19 | CCC(/C=C/C(=O)N[C@@](C)(O)c1ccccc1)=C\c1ccc2c(c1)OCO2 | 30 | 1.48
20 | CC(/C=C/C(=O)N1CCOCC1)=C\c1ccc2c(c1)OCO2 | inactive | inactive
21 | CCCC(/C=C/C(=O)N1CCCCC1)=C\c1ccc(OC)cc1 | 210 | 2.32
22 | CC(/C=C/C(=O)N1CCN(C)CC1)=C\c1ccc2c(c1)OCO2 | 130 | 2.11
23 | CCOC(=O)/C=C/C(C)=C/c1ccc2c(c1)OCO2 | inactive | inactive

Row | SMILES | PF | logPF
24 | CCC(/C=C/C(=O)Nc1ccccc1C)=C\c1ccc2c(c1)OCO2 | 60 | 1.78
25 | CCC(/C=C/C(=O)NC(C)C=O)=C\c1ccc2c(c1)OCO2 (stereo not drawn) | 30 | 1.48
26 | CC(/C=C/C(=O)N1CCCC1)=C\c1ccc2c(c1)OCO2 (stereo in doubt; 3) | 110 | 2.04
27 | CC(=O)CNC(=O)CC(=O)/C=C/C(C)=C/c1ccc2c(c1)OCO2 | 310 | 2.49
28 | CCCCC(/C=N/C(CC)CO)=C\c1ccc(OC)cc1 (stereo not drawn) | 100 | 2
29 | CCCC(/C=C/C(=O)O)=C\c1ccc2c(c1)OCO2 | inactive | inactive
30 | CCCC(/C=C/C(=O)N1CCN(C)CC1)=C\c1ccc(OC)cc1 | 130 | 2.11
31 | CCC(/C=C/C(=O)N1CCCCC1)=C\c1ccc2c(c1)OCO2 | 240 | 2.38
32 | CCC(/C=C/C(=O)N1CCCCC1)=C\c1ccc(OC)c(OC)c1 | 220 | 2.34
33 | CCCCC(/C=C/C(=O)N1CCC(O)CC1)=C\c1ccc2c(c1)OCO2 | 70 | 1.85
34 | CCC(/C=N/C(CC)CO)=C\c1ccc2c(c1)OCO2 (stereo not drawn) | 150 | 2.18
35 | CCCCC(/C=C/C(=O)N1CCN(C)CC1)=C\c1ccc2c(c1)OCO2 | 160 | 2.2
36 | CCC(/C=C/C(=O)O)=C\c1ccc2c(c1)OCO2 | 10 | 1
37 | CCC(/C=C/C(=O)N1CCCC1)=C\c1ccc2c(c1)OCO2 | 90 | 1.95
38 | COc1ccc(/C=C(C)/C=C/C(=O)N2CCCCC2)cc1 | 130 | 2.11
39 | CCC(/C=C/C(=O)Nc1ccccc1OC)=C\c1ccc2c(c1)OCO2 | 60 | 1.78
40 | COC(=O)/C=C/C(C)=C/c1ccc2c(c1)OCO2 | inactive | inactive
41 | C(/C=C/c1ccc2c(c1)OCO2)=C\CN1CCCCC1 | 30 | 1.48
42 | CCCCC(/C=C/C(=O)N1CCCCC1)=C\c1ccc2c(c1)OCO2 | 200 | 2.3
43 | CC/C=C/C(=C/c1ccc2c(c1)OCO2)CC | 20 | 1.3
44 | O=C(/C=C/C=C/c1ccc2c(c1)OCCO2)N1CCOCC1 | 40 | 1.6
45 | CCC(/C=C/C(=O)N1CCC(O)CC1)=C\c1ccc2c(c1)OCO2 | 210 | 2.32
46 | CCC(/C=C/C(=O)NCC(=O)OC)=C\c1ccc2c(c1)OCO2 | 290 | 2.46

System: Staphylococcus aureus
Assay: microbe, parasite or virus in culture
Settings: ATCC 29213, 24 h
Description: Antibacterial activity against Staphylococcus aureus ATCC 29213 after 24 hrs

Row | SMILES | MIC [µg/mL]
47 | O=C(O)c1cn(C2CC2)c2cc(N3CCNCC3)c(F)cc2c1=O [CIPROFLOXACIN] | 0.25 (≈ 0.754 µM)

From ChEMBL document CHEMBL1152832, “Quantitative structure-activity relationship (QSAR) of aryl alkenyl amides/imines for bacterial efflux pump inhibitors” (2009)
